Reference: patent US5556744A, “Methods and compositions for diagnosing and treating certain HIV infected patients” (The Trustees of the University of Pennsylvania, priority 1994, dated 1996)

Assays:
[1] = system: maternal sera (antibodies); experiment: ELISA peptide-binding of maternal sera (Example 6); set-up: species or system human; conditions: for Number of Non-Transmitters which bound to peptide / Percent of Non-Transmitters which bound to peptide: N = 12; for Number of Transmitters which bound to peptide / Percent of Transmitters which bound to peptide: N = 4
Excerpt: A total of 86 maternal sera samples obtained from patients of the Hospital of the University of Pennsylvania during the third trimester of pregnancy were used in this study 58 (67%) were non-transmitters and 28 (33%) were transmitters. This is approximately consistent with the national average (i.e. a rate of transmission between 25-30%). Transmission status was based upon serological or molecular diagnosis of children (at an age of greater than 15 months) born to these mothers. Because of the constraints on the volume of serum available for many of these samples, not all sera were analyzed with all the peptides. However, each sera sample was run with at least 40 peptides.
These peptides are of an average length of 16 amino acids and covered the entire external as well as the transmembrane glycoprotein of HIV-1. Peptide binding was analyzed by ELISA essentially as described in Example 3.
The results of one study, using some of the peptides identified above among others, is provided in Table 12, which illustrates the number and percent of non-transmitters which bound to the tested peptide. The percentage designation refers to the percentage of sera samples which bound to a particular peptide. A value of greater than 0% means that at least one of the samples bound to the particular peptides.

[2] = system: maternal HIV+ sera (antibodies); experiment: RIA / ELISA binding of maternal HIV+ sera to gp120 and gp41 peptides (Example 3); set-up: species or system human
Summary of the method: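 Peptides were coated at 10 μg/ml in carbonate buffer pH 9.6 and blocked with 1% BSA. Sera at 1:50 and 1:500 were incubated overnight at 4°C and detected with ¹²⁵I anti-human IgG (RIA) or HRP/TMB at OD450 (ELISA). Specific binding was taken as peptide minus no-peptide wells, scored as a ratio to normal human serum.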

Substance | Number of Non-Transmitters which bound to peptide [1] | Percent of Non-Transmitters which bound to peptide [1] | Number of Transmitters which bound to peptide [1] | Percent of Transmitters which bound to peptide [1] | further results
41-22: gp41 peptide, amino acids 702-720, HIV strain BH10, SEQ ID NO: 155 [Peptide 41-22] | 0 | 0% | 0 | 0% | –
C21E: gp120 peptide, amino acids 252-272, HIV strain MN, SEQ ID NO: 147 (CTHGIRPVVSTQLLLNGSLAE) [Peptide C21E] | 0 | 0% | 0 | 0% | –
41-11: gp41 peptide, amino acids 541-564, HIV strain MN, SEQ ID NO: 157 (QARQLLSGIVQQQNNLLRAIEAQQ) [Peptide 41-11] | 0 | 0% | 0 | 0% | –
5099: gp41 peptide, amino acids 512-543, HIV strain IIIB, SEQ ID NO: 162 (AYGIGALFLGFLGAAGSTMGAASMTLTVQARC) [Peptide 5099] | 1 | 83% | 0 | 0% | –
S19C: Peptide S19C, Sequence ID No. 196; described in the January 1991 Catalog (STQLLLNGSLAEEEVVIR) | 0 | 0% | 0 | 0% | –
WSK-1: gp120 peptide, amino acids 378-394, SEQ ID NO:115 (GGEFFYCNSTQLFNSTW) | 0 | 0% | 0 | 0% | –
124: gp41 peptide, amino acids 646-660, SEQ ID NO:123 (IEESQNQQEKNEQEL) [Peptide 124] | 0 | 0% | 0 | 0% | –
KQIINMWQEVGKAMYA/CTRPNNNTRKSIRIQRGPG (KQIINMWQEVGKAMYACTRPNNNTRKSIRIQRGPG) [1/SP10IIIB] | 8 | 66.7% | 1 | 25% | Correlation of peptide binding with non-transmitters (in words) ([1]; Example 6): selectively correlate with non-transmitters; Fold binding, non-transmitters vs transmitters ([1]; Example 6): at least two fold greater; Percent of Non-Transmitters which bound to peptide ([1]; listed as 1/SP10 IIIB): greater than 50%
BS-1: gp120 peptide, amino acids 319-329, SEQ ID NO:114 (TIGKIGNMRQA) | 0 | 0% | 0 | 0% | –
A824: gp41 peptide, amino acids 824-831, HIV strain IIIB, SEQ ID NO: 175 (EGTDRVIE) [Peptide A824] | 0 | 0% | 0 | 0% | –
A581: gp41 peptide, amino acids 576-592, SEQ ID NO:120 (LQARILAVERYLKDQQL) [Peptide A581] | 2 | 16.7% | 0 | 0% | –
A733: gp41 peptide, amino acids 728-745, HIV strain IIIB, SEQ ID NO: 174 (DRPEGIEEEGGERDRDRS) [Peptide A733] | 1 | 8.3% | 0 | 0% | –
A487: gp120 peptide, amino acids 481-503, HIV strain IIIB, SEQ ID NO: 132 (ELYKYKVVKIEPLGVAPTKAKRR) [Peptide A487] | 1 | 8.3% | 0 | 0% | –
A6938: gp120 peptide, amino acids 200-217, HIV strain IIIB, SEQ ID NO: 135 (VITQACPKVSFEPIPIHY) [Peptide A6938] | 0 | 0% | 0 | 0% | –
105: gp120 peptide, amino acids 286-300, SEQ ID NO:112 (VQLNTSVEINCTRPN) [Peptide 105] | 0 | 0% | 0 | 0% | –
GYSPLSFQTHPIPR [Peptide 128] | – | – | – | – | Binding of maternal HIV+ serum to peptide (sera/NHS ratio) ([2]; Serum No. 1, Non-Transmission Group): - (specific OD450 or cpm of sera sample binding to peptide divided by the specific OD450 or cpm of NHS sample binding to peptide, which value is less than 2); Binding of maternal HIV+ serum to peptide (sera/NHS ratio) ([2]; Serum No. 2, Non-Transmission Group): - (specific OD450 or cpm of sera sample binding to peptide divided by the specific OD450 or cpm of NHS sample binding to peptide, which value is less than 2); Binding of maternal HIV+ serum to peptide (sera/NHS ratio) ([2]; Serum No. 3, Non-Transmission Group): - (specific OD450 or cpm of sera sample binding to peptide divided by the specific OD450 or cpm of NHS sample binding to peptide, which value is less than 2); Binding of maternal HIV+ serum to peptide (sera/NHS ratio) ([2]; Serum No. 4, Transmission Group): - (specific OD450 or cpm of sera sample binding to peptide divided by the specific OD450 or cpm of NHS sample binding to peptide, which value is less than 2); Binding of maternal HIV+ serum to peptide (sera/NHS ratio) ([2]; Serum No. 5, Transmission Group): - (specific OD450 or cpm of sera sample binding to peptide divided by the specific OD450 or cpm of NHS sample binding to peptide, which value is less than 2); Binding of maternal HIV+ serum to peptide (sera/NHS ratio) ([2]; Serum No. 6, Non-Transmission Group): - (specific OD450 or cpm of sera sample binding to peptide divided by the specific OD450 or cpm of NHS sample binding to peptide, which value is less than 2); Binding of maternal HIV+ serum to peptide (sera/NHS ratio) ([2]; Serum No. 7, Non-Transmission Group): - (specific OD450 or cpm of sera sample binding to peptide divided by the specific OD450 or cpm of NHS sample binding to peptide, which value is less than 2); Binding of maternal HIV+ serum to peptide (sera/NHS ratio) ([2]; Serum No. 8, Non-Transmission Group): - (specific OD450 or cpm of sera sample binding to peptide divided by the specific OD450 or cpm of NHS sample binding to peptide, which value is less than 2); Binding of maternal HIV+ serum to peptide (sera/NHS ratio) ([2]; Serum No. 9, Non-Transmission Group): - (specific OD450 or cpm of sera sample binding to peptide divided by the specific OD450 or cpm of NHS sample binding to peptide, which value is less than 2); Binding of maternal HIV+ serum to peptide (sera/NHS ratio) ([2]; Serum No. 10, Transmission Group): - (specific OD450 or cpm of sera sample binding to peptide divided by the specific OD450 or cpm of NHS sample binding to peptide, which value is less than 2); Binding of maternal HIV+ serum to peptide (sera/NHS ratio) ([2]; Serum No. 11, Non-Transmission Group): - (specific OD450 or cpm of sera sample binding to peptide divided by the specific OD450 or cpm of NHS sample binding to peptide, which value is less than 2); Binding of maternal HIV+ serum to peptide (sera/NHS ratio) ([2]; Serum No. 12, Non-Transmission Group): - (specific OD450 or cpm of sera sample binding to peptide divided by the specific OD450 or cpm of NHS sample binding to peptide, which value is less than 2); Binding of maternal HIV+ serum to peptide (sera/NHS ratio) ([2]; Serum No. 13, Transmission Group): - (specific OD450 or cpm of sera sample binding to peptide divided by the specific OD450 or cpm of NHS sample binding to peptide, which value is less than 2); Binding of maternal HIV+ serum to peptide (sera/NHS ratio) ([2]; Serum No. 14, Transmission Group): - (specific OD450 or cpm of sera sample binding to peptide divided by the specific OD450 or cpm of NHS sample binding to peptide, which value is less than 2); Binding of maternal HIV+ serum to peptide (sera/NHS ratio) ([2]; Serum No. 15, Transmission Group): - (specific OD450 or cpm of sera sample binding to peptide divided by the specific OD450 or cpm of NHS sample binding to peptide, which value is less than 2); Binding of maternal HIV+ serum to peptide (sera/NHS ratio) ([2]; Serum No. 16, Non-Transmission Group): - (specific OD450 or cpm of sera sample binding to peptide divided by the specific OD450 or cpm of NHS sample binding to peptide, which value is less than 2); Binding of maternal HIV+ serum to peptide (sera/NHS ratio) ([2]; Serum No. 17, Non-Transmission Group): - (specific OD450 or cpm of sera sample binding to peptide divided by the specific OD450 or cpm of NHS sample binding to peptide, which value is less than 2); Binding of maternal HIV+ serum to peptide (sera/NHS ratio) ([2]; Serum No. 18, Non-Transmission Group): - (specific OD450 or cpm of sera sample binding to peptide divided by the specific OD450 or cpm of NHS sample binding to peptide, which value is less than 2); Binding of maternal HIV+ serum to peptide (sera/NHS ratio) ([2]; Serum No. 19, Transmission Group): - (specific OD450 or cpm of sera sample binding to peptide divided by the specific OD450 or cpm of NHS sample binding to peptide, which value is less than 2); Binding of maternal HIV+ serum to peptide (sera/NHS ratio) ([2]; Serum No. 20, Non-Transmission Group): - (specific OD450 or cpm of sera sample binding to peptide divided by the specific OD450 or cpm of NHS sample binding to peptide, which value is less than 2)
